{"source": "patent US20070212360A1", "about": "“Modulation of mitochondrial oxygen consumption for therapeutic purposes” (priority 2006, published 2007)", "key": {"[1]": {"tested_on": "PDK1 in wildtype and HIF1α knockout mouse embryo fibroblasts (MEFs)", "assay": "Western blot of PDK1 in hypoxic MEFs", "format": "cell-based", "details": "0.5% O2 24 h, 2 ng/ml", "procedure": "FIG. 11. Inhibition of HIF1 increases oxygen consumption in vitro. (a) Western blot of wildtype and HIF1α knockout MEFs exposed normoxia (N) or hypoxia (H) (0.5% O2) for 24 hours in the presence or absence of 2 ng/ml echinomycin. (b) In vitro oxygen consumption of wildtype and HIF1α knockout MEFs (b) after exposure to 24 hours of normoxia or hypoxia (0.5% O2) in the presence or absence of 2 ng/ml echinomycin. Data are normalized to normoxic values. (*) indicate a significant difference relative to control (p<0.05).\nWestern blots. In brief, cells were harvested directly in RIPA buffer containing protease inhibitors, protein concentrations were quantified (Pierce), 25-50 μg of total protein was electrophoresed on a reducing Tris-Tricine gel, and electroblotted to PVDF membrane. Antibodies used were rabbit anti-PDK1 (Stressgen) (1:2000), murine anti-α tubulin (Research Diagnostics) (1:2000), and rabbit anti-Bnip3 and anti-Bnip3L as described previously by Papandreou et al. (2005) Cancer research 65, 3171-8. (1:500). Primary antibodies were detected with species-specific secondary antibodies labeled with Alkaline Phosphatase (Vector labs) (1:3000) and visualized with ECF (Amersham) on a Storm 860 phosphoimager (Molecular Devices)."}, "[2]": {"tested_on": "RKO and RKOShHIF1α tumors", "assay": "Oxygen consumption of freshly explanted RKO tumor xenografts", "format": "in vivo, mouse", "details": "0.12 mg/kg echinomycin ip 24 h prior; vs PBS controls", "procedure": "FIG. 7. Inhibition of HIF1 and PDK1 increases oxygen consumption in vitro and in vivo. (a) Western blots of extracts from RKO and Su.86 cells exposed to normoxia (N) or hypoxia (H) (0.5% O2) for 24 h in the presence or absence of 2 ng/ml echinomycin probed for the indicated proteins. (b) Oxygen consumption rates of RKO and RKOShHIF1α cells (left) and Su.86 cells (right) after 24 h treatment with normoxia or hypoxia (0.5% O2) with or without 2 ng/ml echinomycin. Data are normalized to normoxic samples. (c) Relative oxygen consumption of RKO cells treated with hypoxia (0.5% O2) for 24 h in the presence of increasing concentrations of echinomycin. (d) Oxygen consumption rates of freshly explanted tumor tissue from RKO (n=16) and RKOShHIF1α (n=8) xenografts. (e) Oxygen consumption rates of RKO and RKOShHIF1 tumors from mice treated with 0.12 mg/kg echinomycin ip 24 h prior (n=8), or 50 mg/kg DCA ip 4 h prior (n=8). Data is normalized to PBS treated controls (n=8-16). (*) indicate a significant difference relative to control (p<0.05).\nCell lines and tumor xenografts. […]\nOxygen consumption measurements. […] Oxygen consumption was measured in a 0.5 ml volume using an Oxytherm electrode unit (Hansatech, Norfolk, UK). […] Oxygen consumption was measured as above in a 1 ml volume and normalized to tissue weight."}, "Su.86 tumors": {"tested_on": "Su.86 tumors", "assay": "Tumor growth delay, Su.86 xenografts", "format": "in vivo, mouse", "details": "tirapazamine followed by echinomycin at 24 hours, 6 cycles; compared to echinomycin followed by tirapazamine", "procedure": "FIG. 10. Pharmacologic inhibition of HIF1 or PDK1 enhances the response of tumor xenografts to the hypoxic cytotoxin tirapazamine. For all experiments, treatment was initiated when the mean tumor volume was 100-200 mm^3. (a) RKO tumor bearing mice were treated with 0.12 mg/kg echinomycin ip followed by 30 mg/kg tirapazamine ip at 24 hours, followed by a rest day for 3 cycles. Single agents were given at the same dose, on the same schedule. (b) RKO tumor bearing mice were treated with 50 mg/kg DCA ip followed by 20 mg/kg tirapazamine ip at 4 hours daily for 14 days. Single agents were given at the same dose, on the same schedule. (c,d,e) RKO (c), RKOShHIF1α (d), or Su.86 (e) tumor bearing mice were treated with echinomycin plus tirapazamine as described above for 6 cycles (Ech+TPZ), or tirapazamine followed by echinomycin at 24 hours followed by a rest day for 6 cycles (TPZ+Ech). For all experiments, arrows indicate when treatment was stopped.\nCell lines and tumor xenografts. RKO human colon carcinoma cells and Su.86 human pancreatic carcinoma cells were obtained from the American Type Culture Collection (ATCC, Manassas, Va.). The RKOShHIF1α cell line in which HIF1α is stably knocked down by shRNA has been described previously. RKO and immortalized MEF cells were grown in Dulbecco's Modified Eagle's Media (DMEM) supplemented with 10% fetal bovine serum (FBS). […]"}}, "data": [{"smiles": "CS[C@H]1SC[C@H]2C(=O)N(C)[C@@H](C(C)C)C(=O)OC[C@@H](NC(=O)c3cnc4ccccc4n3)C(=O)N[C@@H](C)C(=O)N(C)[C@@H]1C(=O)N(C)[C@@H](C(C)C)C(=O)OC[C@@H](NC(=O)c1cnc3ccccc3n1)C(=O)N[C@@H](C)C(=O)N2C", "note": "[echinomycin]", "values": [{"measurement": "hypoxic expression of PDK1 in HIF1α deficient cells", "setting": "[1]; HIF1α knockout MEFs", "result": "no effect"}, {"measurement": "hypoxic PDK1 induction in wildtype MEFs", "setting": "[1]; wildtype MEFs", "result": "blocked PDK1 induction"}, {"measurement": "tumor oxygen consumption, RKO wildtype tumors", "setting": "[2]", "result": "significantly increased"}, {"measurement": "tumor oxygen consumption, RKOShHIF1 tumors", "setting": "[2]", "result": "no effect"}, {"measurement": "effect on growth of Su.86 tumors, reversed schedule", "setting": "Su.86 tumors", "result": "little effect"}]}]}
